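Cells were grown in 96-well plates and exposed to each compound for 48 hours at five concentrations; endpoints were interpolated linearly between bracketing concentrations, or set to the highest concentration if not reached. GI50 marks 50% less growth.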 Activity calls are given as the source filed them. No stated cut-off is given here; in the data, active = GI50 up to about 1.1 µM and inactive = higher.
Legend:
Experiment in all cases: NCI tumour cell line growth inhibition, 48 h
COLO 205 = test system: COLO 205
SF-539 = test system: SF-539
SNB-75 = test system: SNB-75
OVCAR-3 = test system: OVCAR-3
UO-31 = test system: UO-31
EKVX = test system: EKVX
TK-10 = test system: TK-10
CAKI-1 = test system: CAKI-1
HT-29 = test system: HT-29
KM12 = test system: KM12
XF498 = test system: XF498
M14 = test system: M14
OVCAR-8 = test system: OVCAR-8
HCT-15 = test system: HCT-15
OVCAR-4 = test system: OVCAR-4
DMS-273 = test system: DMS-273
LXFL 529 = test system: LXFL 529
NCI-H460 = test system: NCI-H460
RPMI-8226 = test system: RPMI-8226
SK-MEL-28 = test system: SK-MEL-28
786-0 = test system: 786-0
NCI-H23 = test system: NCI-H23
A498 = test system: A498
U-251 = test system: U-251
HOP-92 = test system: HOP-92
A549 = test system: A549
SK-OV-3 = test system: SK-OV-3
SF-268 = test system: SF-268
LOX IMVI = test system: LOX IMVI
DLD-1 = test system: DLD-1
ACHN = test system: ACHN
UACC-62 = test system: UACC-62
NCI-H226 = test system: NCI-H226
KM-20L2 = test system: KM-20L2
HOP-18 = test system: HOP-18
HOP-62 = test system: HOP-62
SNB-19 = test system: SNB-19
IGROV-1 = test system: IGROV-1
SNB-78 = test system: SNB-78
SR = test system: SR
UACC-257 = test system: UACC-257
SW-620 = test system: SW-620
SK-MEL-2 = test system: SK-MEL-2
RXF 393 = test system: RXF 393
OVCAR-5 = test system: OVCAR-5
SN12C = test system: SN12C
HCC 2998 = test system: HCC 2998
HCT-116 = test system: HCT-116
Malme-3M = test system: Malme-3M
SF-295 = test system: SF-295
SK-MEL-5 = test system: SK-MEL-5
MOLT-4 = test system: MOLT-4
M19-MEL = test system: M19-MEL
MCF7 = test system: MCF7
NCI/ADR-RES = test system: NCI/ADR-RES
K562 = test system: K562
HL-60 = test system: HL-60
DMS-114 = test system: DMS-114
CCRF-CEM = test system: CCRF-CEM
NCI-H522 = test system: NCI-H522

Measured: GI50

CCOC(=O)C(=O)Nc1ccccc1C(F)(F)F
inactive: COLO 205 > 100 µM | SF-539 > 100 µM | SNB-75 79.4 µM | OVCAR-3 > 100 µM | UO-31 > 100 µM | EKVX > 100 µM | TK-10 > 100 µM | CAKI-1 > 100 µM | HT-29 > 100 µM | KM12 > 100 µM | XF498 > 100 µM | M14 > 100 µM | OVCAR-8 > 100 µM | OVCAR-4 > 100 µM | DMS-273 > 100 µM | LXFL 529 > 100 µM | NCI-H460 > 100 µM | RPMI-8226 > 100 µM | SK-MEL-28 > 100 µM | 786-0 > 100 µM | NCI-H23 > 100 µM | A498 > 100 µM | U-251 > 100 µM | HOP-92 > 100 µM | A549 > 100 µM | SK-OV-3 > 100 µM | SF-268 > 100 µM | LOX IMVI > 100 µM | DLD-1 > 100 µM | ACHN > 100 µM | UACC-62 > 100 µM | NCI-H226 > 100 µM | KM-20L2 > 100 µM | HOP-62 > 100 µM | SNB-19 > 100 µM | IGROV-1 > 100 µM | SNB-78 > 100 µM | SR 2.39 µM | UACC-257 > 100 µM | SW-620 > 100 µM | SK-MEL-2 > 100 µM | RXF 393 > 100 µM | OVCAR-5 > 100 µM | SN12C > 100 µM | HCC 2998 > 100 µM | HCT-116 > 100 µM | Malme-3M > 100 µM | SF-295 > 100 µM
> 100 µM: HCT-15
active: HOP-18 0.9 µM

O=C1c2cccc3cc4ccccc4c(c23)C(=O)N1CCNCCNCCNCCN1C(=O)c2cccc3cc4ccccc4c(c23)C1=O
active: COLO 205 < 0.01 µM | SF-539 0.0243 µM | SNB-75 < 0.0141 µM | OVCAR-3 < 0.033 µM | UO-31 0.0335 µM | EKVX 0.129 µM | SK-MEL-5 0.0243 µM | MOLT-4 < 0.01 µM | CAKI-1 < 0.01 µM | HT-29 < 0.01 µM | XF498 0.0131 µM | OVCAR-8 < 0.01 µM | M19-MEL < 0.01 µM | OVCAR-4 < 0.01 µM | DMS-273 < 0.01 µM | NCI-H460 < 0.01 µM | SK-MEL-28 < 0.01 µM | MCF7 < 0.01 µM | NCI-H23 < 0.01 µM | NCI/ADR-RES < 0.0136 µM | K562 < 0.01 µM | A498 0.19 µM | U-251 < 0.01 µM | HOP-92 0.0111 µM | A549 < 0.01 µM | SF-268 < 0.01 µM | LOX IMVI < 0.01 µM | HL-60 < 0.01 µM | DLD-1 < 0.014 µM | UACC-62 < 0.01 µM | DMS-114 0.0114 µM | KM-20L2 < 0.0139 µM | HOP-18 0.0405 µM | CCRF-CEM < 0.01 µM | SNB-19 < 0.01 µM | IGROV-1 < 0.01 µM | SNB-78 < 0.01 µM | UACC-257 0.201 µM | SW-620 < 0.01 µM | SK-MEL-2 0.119 µM | RXF 393 < 0.01 µM | OVCAR-5 0.158 µM | SN12C < 0.027 µM | HCC 2998 < 0.0134 µM | HCT-116 < 0.01 µM | Malme-3M 0.126 µM | SF-295 < 0.01 µM
inactive: NCI-H226 33.6 µM
< 0.01 µM: HCT-15

O=S(O)CCCSSc1ccccc1
inactive: COLO 205 43.4 µM | SF-539 25.3 µM | SNB-75 20.8 µM | OVCAR-3 53.8 µM | UO-31 19.8 µM | EKVX 36.1 µM | SK-MEL-5 22.5 µM | MOLT-4 17.5 µM | TK-10 40.1 µM | CAKI-1 27 µM | HT-29 46.9 µM | KM12 31.1 µM | XF498 98.9 µM | M14 37.1 µM | OVCAR-8 26.5 µM | M19-MEL 39.4 µM | OVCAR-4 98.4 µM | DMS-273 30.8 µM | LXFL 529 32.5 µM | NCI-H460 78.3 µM | SK-MEL-28 54.6 µM | 786-0 66.8 µM | NCI-H23 66.7 µM | K562 38.1 µM | A498 51.9 µM | U-251 26.4 µM | A549 25.5 µM | SK-OV-3 99.3 µM | SF-268 18.7 µM | LOX IMVI 29.3 µM | DLD-1 41.9 µM | ACHN 48 µM | UACC-62 36.6 µM | DMS-114 16.8 µM | KM-20L2 51.1 µM | HOP-18 > 100 µM | HOP-62 57.7 µM | NCI-H522 18.3 µM | CCRF-CEM 7.67 µM | SNB-19 96.8 µM | IGROV-1 14.7 µM | SNB-78 32.7 µM | UACC-257 40.2 µM | SW-620 47.3 µM | SK-MEL-2 74.6 µM | RXF 393 22.9 µM | OVCAR-5 > 100 µM | SN12C 25.6 µM | HCC 2998 76.9 µM | HCT-116 37.7 µM | Malme-3M 67 µM | SF-295 53.2 µM
35.5 µM: HCT-15

From ChEMBL document CHEMBL1201862, “PubChem BioAssay data set” (2004)
